# Results: ChEMBL document CHEMBL1201862, “PubChem BioAssay data set” (2004)
# Active and inactive are the calls of the source.
# What was measured:
# [1] = molecular target: Glyceraldehyde-3-phosphate dehydrogenase (Homo sapiens, UniProt P04406)
# [2] = molecular target: Alkaline phosphatase, placental type (Homo sapiens, UniProt P05187); test: human placental alkaline phosphatase inhibition – biochemical, luminescence, confirmation (AID 1512); format: functional
# [3] = molecular target: T1, Alkaline phosphatase, tissue-nonspecific isozyme (Homo sapiens, UniProt P05186); test: potency against alkaline phosphatase TNAP – biochemical, luminescent, dose response, SAR follow-up (AID 1056)
# T1 sequence (P05186 whole entry): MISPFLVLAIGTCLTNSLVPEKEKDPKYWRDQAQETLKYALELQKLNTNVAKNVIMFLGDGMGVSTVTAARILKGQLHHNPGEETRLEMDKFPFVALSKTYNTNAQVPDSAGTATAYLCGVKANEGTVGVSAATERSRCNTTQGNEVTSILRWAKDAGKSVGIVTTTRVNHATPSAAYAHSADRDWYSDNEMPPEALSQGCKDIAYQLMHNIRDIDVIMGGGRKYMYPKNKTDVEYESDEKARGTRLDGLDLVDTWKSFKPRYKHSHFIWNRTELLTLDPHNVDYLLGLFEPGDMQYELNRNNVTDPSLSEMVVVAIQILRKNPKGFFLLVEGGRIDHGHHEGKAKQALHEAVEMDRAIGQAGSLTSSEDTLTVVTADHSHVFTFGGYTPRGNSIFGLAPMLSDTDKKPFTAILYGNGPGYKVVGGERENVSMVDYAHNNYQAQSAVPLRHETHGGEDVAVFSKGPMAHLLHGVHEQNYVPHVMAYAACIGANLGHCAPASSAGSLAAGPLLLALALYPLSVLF
# [4] = molecular target: G-protein coupled receptor 35 (Homo sapiens, UniProt Q9HC97); test: inhibition of zaprinast-stimulated GPR35 beta-arrestin translocation – imaging, U2OS, beta-arrestin-GFP, zaprinast agonist, primary screen (AID 2058); format: functional;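 also: antagonist potency meaning inhibition of agonist-induced arrestin redistribution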
# [5] = tested on: Streptococcus sp. 'group A'; test: Streptococcus pyogenes SK(-)GAS viability under kanamycin – luminescence, BacTiterGlo, confirmation, counter-screen for streptokinase expression inhibitor project, dose response (AID 1900); format: functional, organism-based
# Streptokinase A = molecular target: T2, Streptokinase A (Streptococcus pyogenes serotype M1, UniProt P10520); test: viability-normalized secreted streptokinase activity reduction – plasminogen activation absorbance, OD405, dose response (AID 1914); format: functional, Streptococcus pyogenes M1 GAS;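 also: secreted streptokinase activity via plasminogen activation per viability signal from cell pellet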
# T2 sequence (P10520 whole entry): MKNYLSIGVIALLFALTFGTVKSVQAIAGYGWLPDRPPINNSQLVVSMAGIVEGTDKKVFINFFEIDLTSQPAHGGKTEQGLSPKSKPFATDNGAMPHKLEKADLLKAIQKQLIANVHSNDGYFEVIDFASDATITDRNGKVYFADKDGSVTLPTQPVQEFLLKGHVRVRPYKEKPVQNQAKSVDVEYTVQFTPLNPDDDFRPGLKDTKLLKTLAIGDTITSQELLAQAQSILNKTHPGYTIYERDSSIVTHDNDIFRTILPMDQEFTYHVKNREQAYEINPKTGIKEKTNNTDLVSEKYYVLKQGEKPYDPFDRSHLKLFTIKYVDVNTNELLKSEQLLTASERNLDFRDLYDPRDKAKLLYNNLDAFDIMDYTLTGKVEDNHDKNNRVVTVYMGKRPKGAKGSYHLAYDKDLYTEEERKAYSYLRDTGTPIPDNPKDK
# Large T antigen = Large T antigen (Simian virus 40, UniProt P03070); format: functional, Betapolyomavirus macacae;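 also: Confirmatory-stage PubChem screen for compounds that inhibit SV40 T antigen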
# [6] = molecular target: T3, Bifunctional protein GlmU (Mycobacterium tuberculosis, UniProt P9WMN3); test: Inhibitors of Mycobacterial Glucosamine-1-phosphate acetyl transferase (GlmU). Secondary screen.; design: species or system Mycobacterium tuberculosis H37Rv
# T3 sequence (P9WMN3 whole entry): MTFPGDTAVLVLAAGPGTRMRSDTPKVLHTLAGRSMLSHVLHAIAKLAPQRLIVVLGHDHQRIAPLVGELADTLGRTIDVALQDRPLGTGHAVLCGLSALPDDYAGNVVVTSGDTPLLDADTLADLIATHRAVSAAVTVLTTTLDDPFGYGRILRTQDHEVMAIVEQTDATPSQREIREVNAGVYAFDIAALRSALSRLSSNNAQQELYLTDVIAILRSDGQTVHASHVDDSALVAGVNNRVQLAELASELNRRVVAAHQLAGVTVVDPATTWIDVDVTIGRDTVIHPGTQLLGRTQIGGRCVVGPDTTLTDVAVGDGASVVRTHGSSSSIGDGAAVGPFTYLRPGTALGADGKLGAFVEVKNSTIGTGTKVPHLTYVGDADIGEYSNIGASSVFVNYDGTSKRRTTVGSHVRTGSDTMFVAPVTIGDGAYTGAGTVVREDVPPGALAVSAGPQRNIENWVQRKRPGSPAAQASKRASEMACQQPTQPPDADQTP
# [7] = molecular target: Induced myeloid leukemia cell differentiation protein Mcl-1 (Homo sapiens, UniProt Q07820); format: functional
# Streptococcus = test: GAS UMAA2166 growth inhibition – luminescence, BacTiterGlo, counter-screen for streptokinase expression inhibitor project, dose response (AID 1915); format: functional, organism-based;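 also: potency for reduction of bacterial viability or growth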
# [8] = molecular target: Dual specificity tyrosine-phosphorylation-regulated kinase 1A (Rattus norvegicus, UniProt Q63470); format: biochemical, Homo sapiens
# [9] = molecular target: 26S proteasome non-ATPase regulatory subunit 14 (Homo sapiens, UniProt O00487); test: inhibition of proteasome subunit RPN11 – biochemical, fluorescence polarization, uHTS hits, confirmation (AID 602368); format: functional
# [10] = molecular target: 72 kDa type IV collagenase (Homo sapiens, UniProt P08253); test: Dose Response validation of uHTS RPN11 inhibitor hits using a MMP-2 Fluorescence assay.; format: functional
# Prothrombin = Prothrombin (Bos taurus, UniProt P00735); test: thrombin protease inhibitors – biochemical, fluorescence polarization, uHTS hits, dose response (AID 602369); format: functional
# Bcl-2-like protein 10 = molecular target: T4, Bcl-2-like protein 10 (Homo sapiens, UniProt Q9HD36); test: Bcl-B/TR3 peptide binding disruption – biochemical, fluorescence polarization, FITC-TR3 peptide, selectivity assay for Bfl-1 inhibitor project, primary screen (AID 748);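 also: fluorescence polarization from a fluorescein-labelled TR3 peptide binding purified Bcl-B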
# T4 sequence (Q9HD36 whole entry): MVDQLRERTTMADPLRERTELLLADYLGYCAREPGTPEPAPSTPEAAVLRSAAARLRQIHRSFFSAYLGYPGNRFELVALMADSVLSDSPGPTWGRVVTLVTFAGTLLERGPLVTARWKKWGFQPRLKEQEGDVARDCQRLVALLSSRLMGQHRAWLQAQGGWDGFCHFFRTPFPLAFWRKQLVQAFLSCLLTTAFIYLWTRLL
# BJ [11] = test: BJ-TERT fibroblast viability loss – cell-based, RAS-independent, luminescence, dose response (AID 1933); format: functional; details: Homo sapiens
# [12] = molecular target: T5, Voltage-gated N-type calcium channel alpha-1B subunit/Amyloid beta A4 precursor protein-binding family A member 1 (Homo sapiens, UniProt Q00975+Q02410); format: protein assay
# BJ [13] = test: cells; format: functional, cell-based; details: Homo sapiens
# Estrogen receptor = molecular target: T6, Estrogen receptor (Homo sapiens, UniProt P03372);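 also: potency for inhibiting coactivator peptide recruitment to the receptor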
# T6 sequence (P03372 whole entry): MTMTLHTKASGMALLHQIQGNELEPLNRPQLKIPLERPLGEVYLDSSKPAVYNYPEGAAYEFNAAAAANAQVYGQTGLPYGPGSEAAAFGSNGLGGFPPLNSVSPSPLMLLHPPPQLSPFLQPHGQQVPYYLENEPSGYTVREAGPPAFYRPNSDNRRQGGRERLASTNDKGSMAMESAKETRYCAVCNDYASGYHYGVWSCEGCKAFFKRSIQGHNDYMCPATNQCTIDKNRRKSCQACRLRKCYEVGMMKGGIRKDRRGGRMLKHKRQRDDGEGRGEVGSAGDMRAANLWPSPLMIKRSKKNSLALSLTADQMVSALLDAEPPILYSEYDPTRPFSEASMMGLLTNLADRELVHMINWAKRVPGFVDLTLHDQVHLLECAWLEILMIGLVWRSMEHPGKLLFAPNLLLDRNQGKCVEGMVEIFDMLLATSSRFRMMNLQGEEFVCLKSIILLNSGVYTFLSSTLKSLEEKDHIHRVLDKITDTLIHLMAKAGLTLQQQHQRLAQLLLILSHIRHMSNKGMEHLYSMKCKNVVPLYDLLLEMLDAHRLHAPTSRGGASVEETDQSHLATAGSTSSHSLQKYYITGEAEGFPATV
# [14] = molecular target: T5, Voltage-gated N-type calcium channel alpha-1B subunit/Amyloid beta A4 precursor protein-binding family A member 1; format: protein assay; remark: listed apart in the source
# BJ [15] = test: BJ-TERT-LT-ST fibroblast viability loss – cell-based, RAS-independent, luminescence, dose response (AID 1935); format: functional; details: Homo sapiens;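 also: BJ fibroblasts immortalized with TERT plus LT and ST oncogenes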
# [16] = DRD fibroblast viability loss – cell-based, non-viral oncogenic, luminescence, dose response (AID 1934); format: functional; details: Homo sapiens
# [17] = molecular target: T7, Heat shock factor protein 1 (Mus musculus, UniProt P38532); test: enhancement of HSF1-driven luciferase signal – cell-based, NIH3T3, luminescence, dose retest, confirmation (AID 435004); format: functional;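 also: stress induced by proteasome inhibitor MG132 added 30 min after compound; luciferase reporter driven by HSF1 response element in NIH3T3 cells; actives raise luminescence as potentiators of the MG132 stress response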
# T7 sequence (P38532 whole entry): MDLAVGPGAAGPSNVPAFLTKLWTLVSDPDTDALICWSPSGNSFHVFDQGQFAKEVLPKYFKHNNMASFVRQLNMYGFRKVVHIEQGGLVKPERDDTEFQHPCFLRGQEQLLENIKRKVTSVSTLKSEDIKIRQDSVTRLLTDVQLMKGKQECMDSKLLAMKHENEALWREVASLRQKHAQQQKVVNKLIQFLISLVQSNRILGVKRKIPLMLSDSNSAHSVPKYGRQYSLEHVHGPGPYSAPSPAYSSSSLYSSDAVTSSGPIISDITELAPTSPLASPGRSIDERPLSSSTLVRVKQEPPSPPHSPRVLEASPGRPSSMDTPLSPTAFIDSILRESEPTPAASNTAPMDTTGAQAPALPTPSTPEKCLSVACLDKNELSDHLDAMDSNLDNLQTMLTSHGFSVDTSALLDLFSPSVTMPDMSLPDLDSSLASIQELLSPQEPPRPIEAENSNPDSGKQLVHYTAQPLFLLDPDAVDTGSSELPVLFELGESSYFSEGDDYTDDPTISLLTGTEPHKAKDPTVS
# [18] = molecular target: T7, Heat shock factor protein 1; test: decrease of HSF1-responsive luciferase luminescence – cell-based, NIH3T3, dose retest, confirmation (AID 2382); format: functional;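 also: NIH3T3 fibroblasts with HSF1-driven luciferase reporter stressed by proteasome inhibitor MG132; luminescence from HSF1-driven luciferase expression after 8 hours of MG132 stress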
# CAAX prenyl protease 2 = molecular target: T8, CAAX prenyl protease 2 (Saccharomyces cerevisiae S288c, UniProt Q03530); format: biochemical
# T8 sequence (Q03530 whole entry): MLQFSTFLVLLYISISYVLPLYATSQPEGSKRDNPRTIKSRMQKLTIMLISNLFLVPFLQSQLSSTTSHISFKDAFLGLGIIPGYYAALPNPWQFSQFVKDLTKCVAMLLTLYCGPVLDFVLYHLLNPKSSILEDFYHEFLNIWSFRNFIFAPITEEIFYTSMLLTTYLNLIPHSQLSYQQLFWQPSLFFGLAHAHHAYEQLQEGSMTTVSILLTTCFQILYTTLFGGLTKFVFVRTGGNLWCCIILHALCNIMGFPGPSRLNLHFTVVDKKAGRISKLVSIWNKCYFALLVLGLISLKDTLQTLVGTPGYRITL
# [19] = HIV-1 Vif–A3G interaction blockers – biochemical, TR-FRET, GST-Vif 1-94, biotin-A3G peptide, dose response retest, primary screen (AID 1117319); format: functional;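 also: TR-FRET signal of purified GST-Vif binding a biotinylated A3G peptide; inhibitors lower the FRET signal by blocking Vif and A3G binding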
# [20] = viability loss in Vero cells – cytotoxicity control for Vif-APOBEC3G degradation inhibitor project, dose response (AID 1117358); format: functional; details: Vero
# Chain of Alkaline phosphatase, placental type (P05187 whole entry): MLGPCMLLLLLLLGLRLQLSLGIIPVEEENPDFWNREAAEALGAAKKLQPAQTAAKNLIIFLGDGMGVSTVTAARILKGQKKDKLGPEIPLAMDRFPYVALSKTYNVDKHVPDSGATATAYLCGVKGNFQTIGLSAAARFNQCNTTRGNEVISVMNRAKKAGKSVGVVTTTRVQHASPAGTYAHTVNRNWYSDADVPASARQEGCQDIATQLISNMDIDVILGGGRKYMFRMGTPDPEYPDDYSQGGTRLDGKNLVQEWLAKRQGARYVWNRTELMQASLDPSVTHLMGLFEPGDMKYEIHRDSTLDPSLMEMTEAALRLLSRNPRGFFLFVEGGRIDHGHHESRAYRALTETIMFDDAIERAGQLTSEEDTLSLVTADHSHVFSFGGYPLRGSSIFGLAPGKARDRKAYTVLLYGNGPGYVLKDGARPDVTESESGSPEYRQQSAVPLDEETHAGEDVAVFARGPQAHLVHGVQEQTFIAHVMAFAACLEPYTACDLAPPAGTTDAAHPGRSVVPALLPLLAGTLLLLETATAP
# T5 sequence (Q00975 whole entry): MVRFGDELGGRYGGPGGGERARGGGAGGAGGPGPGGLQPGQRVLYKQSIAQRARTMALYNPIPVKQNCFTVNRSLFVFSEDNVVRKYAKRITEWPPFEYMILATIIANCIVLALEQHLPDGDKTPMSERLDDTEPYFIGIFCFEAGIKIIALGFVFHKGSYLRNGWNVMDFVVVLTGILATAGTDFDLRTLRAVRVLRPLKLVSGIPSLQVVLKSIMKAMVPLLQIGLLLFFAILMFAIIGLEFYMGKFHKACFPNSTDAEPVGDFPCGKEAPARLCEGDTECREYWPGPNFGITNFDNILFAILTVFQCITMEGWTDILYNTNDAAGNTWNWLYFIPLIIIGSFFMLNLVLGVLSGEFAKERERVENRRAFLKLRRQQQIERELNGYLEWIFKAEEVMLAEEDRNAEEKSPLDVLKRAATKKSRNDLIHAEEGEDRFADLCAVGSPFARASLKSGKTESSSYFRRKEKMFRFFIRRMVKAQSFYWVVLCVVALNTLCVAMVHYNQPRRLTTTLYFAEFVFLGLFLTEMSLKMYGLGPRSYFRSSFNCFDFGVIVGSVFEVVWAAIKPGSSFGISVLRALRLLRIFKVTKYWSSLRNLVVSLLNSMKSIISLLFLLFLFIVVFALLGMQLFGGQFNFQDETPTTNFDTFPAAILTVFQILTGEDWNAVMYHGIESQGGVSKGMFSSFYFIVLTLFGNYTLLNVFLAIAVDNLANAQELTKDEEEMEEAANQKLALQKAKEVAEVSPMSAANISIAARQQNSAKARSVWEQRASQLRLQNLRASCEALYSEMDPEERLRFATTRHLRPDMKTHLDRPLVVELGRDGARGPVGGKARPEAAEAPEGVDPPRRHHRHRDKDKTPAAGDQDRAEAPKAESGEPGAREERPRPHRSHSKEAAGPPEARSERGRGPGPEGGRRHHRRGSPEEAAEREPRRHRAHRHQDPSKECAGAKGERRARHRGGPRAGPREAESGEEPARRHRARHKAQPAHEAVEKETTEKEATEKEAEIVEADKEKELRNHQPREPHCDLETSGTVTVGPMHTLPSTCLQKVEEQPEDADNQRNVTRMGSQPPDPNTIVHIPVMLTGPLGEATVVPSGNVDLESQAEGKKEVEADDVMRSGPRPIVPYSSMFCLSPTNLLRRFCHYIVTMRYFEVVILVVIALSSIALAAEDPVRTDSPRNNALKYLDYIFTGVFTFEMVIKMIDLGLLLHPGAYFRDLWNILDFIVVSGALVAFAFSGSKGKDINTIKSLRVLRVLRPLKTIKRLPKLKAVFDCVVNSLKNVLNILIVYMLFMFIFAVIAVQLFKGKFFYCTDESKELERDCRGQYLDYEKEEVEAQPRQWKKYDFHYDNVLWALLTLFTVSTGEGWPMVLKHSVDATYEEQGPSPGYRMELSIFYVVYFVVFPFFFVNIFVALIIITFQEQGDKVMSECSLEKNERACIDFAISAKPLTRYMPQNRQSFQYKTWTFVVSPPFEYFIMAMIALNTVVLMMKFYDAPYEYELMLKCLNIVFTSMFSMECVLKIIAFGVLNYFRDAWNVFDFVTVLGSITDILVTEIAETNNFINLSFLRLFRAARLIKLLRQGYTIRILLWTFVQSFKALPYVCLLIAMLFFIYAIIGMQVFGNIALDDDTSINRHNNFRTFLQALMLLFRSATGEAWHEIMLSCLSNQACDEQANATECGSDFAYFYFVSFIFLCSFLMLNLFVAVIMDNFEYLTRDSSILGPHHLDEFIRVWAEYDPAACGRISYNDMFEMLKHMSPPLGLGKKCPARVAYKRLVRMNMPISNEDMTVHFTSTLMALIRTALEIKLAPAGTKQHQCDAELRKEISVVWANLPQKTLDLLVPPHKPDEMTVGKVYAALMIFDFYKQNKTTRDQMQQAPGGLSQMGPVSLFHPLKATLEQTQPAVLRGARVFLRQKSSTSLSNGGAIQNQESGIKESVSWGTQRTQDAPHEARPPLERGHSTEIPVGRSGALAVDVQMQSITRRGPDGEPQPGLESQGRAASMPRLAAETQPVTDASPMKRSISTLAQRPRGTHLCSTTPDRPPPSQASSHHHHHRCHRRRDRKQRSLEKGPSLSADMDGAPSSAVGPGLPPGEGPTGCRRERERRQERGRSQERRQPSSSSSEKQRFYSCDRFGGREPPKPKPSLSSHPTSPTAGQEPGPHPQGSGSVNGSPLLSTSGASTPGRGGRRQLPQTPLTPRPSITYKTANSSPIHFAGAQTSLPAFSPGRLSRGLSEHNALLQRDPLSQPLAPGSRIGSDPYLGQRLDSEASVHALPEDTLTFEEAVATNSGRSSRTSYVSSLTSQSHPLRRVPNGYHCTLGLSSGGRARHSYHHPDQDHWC
# T5 sequence (Q02410 whole entry): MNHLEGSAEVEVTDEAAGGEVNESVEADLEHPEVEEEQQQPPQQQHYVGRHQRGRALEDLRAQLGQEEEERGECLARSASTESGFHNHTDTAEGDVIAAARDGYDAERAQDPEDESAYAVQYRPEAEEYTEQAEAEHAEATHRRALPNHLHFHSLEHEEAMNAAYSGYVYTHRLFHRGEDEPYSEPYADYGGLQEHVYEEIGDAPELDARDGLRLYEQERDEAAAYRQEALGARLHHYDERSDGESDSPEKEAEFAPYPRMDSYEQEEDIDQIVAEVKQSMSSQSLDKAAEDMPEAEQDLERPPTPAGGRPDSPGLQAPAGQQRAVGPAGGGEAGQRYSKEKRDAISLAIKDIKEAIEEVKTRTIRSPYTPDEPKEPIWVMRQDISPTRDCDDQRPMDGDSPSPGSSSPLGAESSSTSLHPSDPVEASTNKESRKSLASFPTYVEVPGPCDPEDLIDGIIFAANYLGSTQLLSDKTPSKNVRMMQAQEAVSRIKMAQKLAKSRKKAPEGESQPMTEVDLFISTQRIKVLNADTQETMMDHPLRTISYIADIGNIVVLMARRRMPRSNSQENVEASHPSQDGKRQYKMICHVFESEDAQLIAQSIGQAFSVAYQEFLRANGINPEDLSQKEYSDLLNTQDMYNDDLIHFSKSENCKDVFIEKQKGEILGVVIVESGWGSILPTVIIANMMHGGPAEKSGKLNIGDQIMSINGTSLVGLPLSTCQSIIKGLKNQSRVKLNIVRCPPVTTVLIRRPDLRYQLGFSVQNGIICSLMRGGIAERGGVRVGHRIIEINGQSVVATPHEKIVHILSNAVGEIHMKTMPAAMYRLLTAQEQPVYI
# Chain of Glyceraldehyde-3-phosphate dehydrogenase (P04406 whole entry): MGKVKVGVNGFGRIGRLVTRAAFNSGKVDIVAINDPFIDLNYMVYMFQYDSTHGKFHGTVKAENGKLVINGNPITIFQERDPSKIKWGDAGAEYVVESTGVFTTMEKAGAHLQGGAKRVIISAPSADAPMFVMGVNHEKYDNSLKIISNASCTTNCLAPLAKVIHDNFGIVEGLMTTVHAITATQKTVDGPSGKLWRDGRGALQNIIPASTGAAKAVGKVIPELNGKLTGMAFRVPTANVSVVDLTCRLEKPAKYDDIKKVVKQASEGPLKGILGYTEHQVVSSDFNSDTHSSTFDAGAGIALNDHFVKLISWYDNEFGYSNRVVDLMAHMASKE
# Chain of G-protein coupled receptor 35 (Q9HC97 whole entry): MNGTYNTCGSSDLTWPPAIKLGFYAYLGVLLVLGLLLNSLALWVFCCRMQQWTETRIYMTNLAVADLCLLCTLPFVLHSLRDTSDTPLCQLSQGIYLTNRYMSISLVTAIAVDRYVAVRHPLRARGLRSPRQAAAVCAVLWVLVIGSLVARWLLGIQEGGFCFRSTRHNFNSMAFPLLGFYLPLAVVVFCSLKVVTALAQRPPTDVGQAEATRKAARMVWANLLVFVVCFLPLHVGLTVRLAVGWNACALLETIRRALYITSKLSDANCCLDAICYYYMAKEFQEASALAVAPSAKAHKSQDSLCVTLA
# Chain of Large T antigen (P03070 whole entry): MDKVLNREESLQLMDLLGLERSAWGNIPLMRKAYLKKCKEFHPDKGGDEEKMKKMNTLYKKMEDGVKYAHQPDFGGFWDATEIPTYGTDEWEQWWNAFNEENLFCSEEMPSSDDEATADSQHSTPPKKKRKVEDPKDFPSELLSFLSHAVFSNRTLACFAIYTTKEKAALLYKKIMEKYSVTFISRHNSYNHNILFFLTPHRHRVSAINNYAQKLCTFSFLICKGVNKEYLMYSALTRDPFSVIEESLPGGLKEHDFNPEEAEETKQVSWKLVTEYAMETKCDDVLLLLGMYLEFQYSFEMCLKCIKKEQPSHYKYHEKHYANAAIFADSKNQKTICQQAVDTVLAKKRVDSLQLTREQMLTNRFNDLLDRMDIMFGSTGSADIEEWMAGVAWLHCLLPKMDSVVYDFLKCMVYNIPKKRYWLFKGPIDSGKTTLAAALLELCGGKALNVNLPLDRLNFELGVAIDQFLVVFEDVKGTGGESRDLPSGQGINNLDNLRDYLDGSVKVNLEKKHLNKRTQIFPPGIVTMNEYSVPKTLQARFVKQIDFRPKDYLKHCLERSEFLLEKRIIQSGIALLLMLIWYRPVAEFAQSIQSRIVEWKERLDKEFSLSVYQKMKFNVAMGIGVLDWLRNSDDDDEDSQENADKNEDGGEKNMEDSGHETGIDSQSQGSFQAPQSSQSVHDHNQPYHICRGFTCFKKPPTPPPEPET
structure (smiles),measurement,setting,value
COc1ccc(Cc2nc3c4cnn(C)c4ncn3n2)cc1,IC50,[1],> 100 µM (not active)
same,IC50,[2],> 100 µM (inactive)
same,IC50,[3],> 100 µM (inactive)
N=C1/C(=C\c2ccc(-c3cccc(C(=O)O)c3)o2)C(=O)N=C2SC=C(c3ccccc3)N12,IC50,[4],2.29 µM (active)
same,EC50,[5],0.743 µM (active)
same,EC50,Streptokinase A,> 150 µM (not active)
same,IC50,Large T antigen,92.2 µM (active)
same,IC50,[6],129 µM (active)
same,IC50,[7],1.55 µM (active)
same,EC50,Streptococcus,8.79 µM (active)
same,AC50,[8],2.19 µM (active)
same,IC50,[9],7.84 µM (active)
same,IC50,[10],9.07 µM (active)
same,IC50,Prothrombin,15.8 µM (active)
Cc1c(C(=O)OCC2CCCO2)[nH]c2c1C(=O)CC(c1ccco1)C2 (configuration not stated),IC50,Bcl-2-like protein 10,23.8 µM (active)
same,EC50,BJ [11],12.2 µM (active)
same,IC50,[12],21.9 µM (active)
same,EC50,BJ [13],36.9 µM (active)
same,IC50,Estrogen receptor,32.1 µM (not active)
same,IC50,[14],> 50 µM (inactive)
same,EC50,BJ [15],23.6 µM (active)
same,EC50,[16],21.8 µM (active)
same,EC50,[17],> 260 µM (inactive)
CC(=O)c1ccc(NC(=O)C(C)n2nc(-c3ccccc3)c3cc(Cl)ccc32)cc1 (configuration not stated),IC50,[4],1.78 µM (active)
same,EC50,[18],> 195 µM (not active)
CC(=O)Oc1ccc(C(=O)Nc2ccc(S(=O)(=O)NCC3CCCO3)cc2)cc1 (configuration not stated),AC50,CAAX prenyl protease 2,68.7 µM (active)
CCn1nc(C)c(/C=N/NC(=O)c2ccc3c(c2)c(C)c(C)n3Cc2ccccc2)c1C,IC50,[2],> 100 µM (inactive)
CC(C)c1c(C(=O)N/N=C/c2ccsc2)nnn1-c1nonc1N,AC50,CAAX prenyl protease 2,0.343 µM (active)
COc1ccc(OC)c(S(=O)(=O)Nc2cnc3ccccc3c2)c1,IC50,[1],> 100 µM (not active)
same,IC50,[2],> 100 µM (inactive)
same,IC50,[19],> 100 µM (active)
same,CC50,[20],> 40 µM (active)
